According to patent publication US9616066B2, “Therapy for constipation” (priority 2012, dated 2017):

Assays:
[1] = system: non-opiate medication-related constipation; assay: Case Example 2: cetilistat for constipation related to amitriptyline (non-opiate medication); assay type: in vivo, human
Method: A person with fibromyalgia being treated with the tricyclic antidepressant, amitriptyline, suffered from a global pain disorder requiring pain management. They were of average weight, not over-weight. They were treated with amitriptyline that is a known therapeutic agent for mild to moderate fibromyalgia. This tricyclic antidepressant is also known for causing dry mouth, blurry vision and constipation.

[2] = system: lazy bowel and age-related constipation; assay: Case Example 3: cetilistat for constipation in person (non-opiate medications, dehydration, lazy bowel); assay type: in vivo, human; conditions: cetilistat 60 mg twice daily
Excerpt: Person living in a nursing home with mild dementia complained of painful bowel movements causing an anal fissure with bleeding in their rectum. The cause of their constipation was deemed to be due to a combination of non-opiate medications, dehydration, and a lazy bowel. The patient also complained of abdominal distention and some intermittent abdominal discomfort. The patient was not overweight. […] They had abdominal pain with conventional bowel stimulants. […] The cetilistat resolved the constipation in an acute case and allowed for long-term recovery from a constipation-related complication. Further, it was effective in the treatment of lazy bowel and age-related constipation.

[3] = system: constipation related to menstrual cycle; assay: Case Example 6: cetilistat for constipation related to menstrual cycle; assay type: in vivo, human; conditions: cetilistat 60 mg oral once a day with food, as needed
Excerpt: This is a case of a person who complained of recurring constipation related to their menstrual cycle. They noticed that a few days before the onset of their menstrual cycle and for the week of their menstrual cycle they develop constipation that aggravates their bloating and abdominal pain. They are not overweight. They have tried over-the-counter laxatives and tried some standard prescription laxatives that caused them to feel more bloated. […] Their doctor gave them a prescription of cetilistat (one 60 mg oral pill once a day with food) to be taken one to three days before the onset of their menstruation. In the fourth week of their period, they noticed normalization of their bowel movement and required to take the cetilistat only as needed. Often they only need to take it three times during their menstrual cycle. […] Typically, they required the cetilistat 3-7 days per cycle. […] Further, the cetilistat may be used as needed as a medication for constipation.

[4] = system: constipation related to dehydration, post-gastroenteritis; assay: Case Example 4: orlistat for constipation related to post-infection and dehydration; assay type: in vivo, human
Method: A person travelled to Mexico and while there developed acute gastroenteritis. The patient was of average weight (not overweight). They began experiencing vomiting and diarrhea while there. They became dehydrated and eventually was transferred to their home in Canada. The virus had cleared one day after arriving back in Canada. They began eating and drinking but had developed constipation related to post-infection and dehydration. They were given orlistat (120 mg orally once daily with food) by their doctor for one week and this resolved their constipation within 24 hours. […] The improvement was such that after seven days that when they stopped the medication (orlistat), they were able to return to their normal diet.

[5] = system: paralytic bowel, chronic constipation; assay: Case Example 5: orlistat for paralytic bowel after spinal cord transection; assay type: in vivo, human; conditions: orlistat 120 mg three times a day with food
Excerpt: A person of average weight (not overweight) suffered a thoracic spinal injury with transection of the spinal cord resulting in complete paralysis below the third thoracic vertebrae. They went on to develop full paralysis of their muscles below T-3 including the skeletal muscles and smooth muscles of the gut. They developed a paralytic bowel contributing to chronic constipation with overflow and diarrhea. They required regular manual disempaction and Fleet enemas to manage their chronic constipation. The patient was given orlistat (120 mg one pill three times a day with food) by their doctor.

[6] = system: chronic constipation after bowel resection/colostomy; assay: Case Example 7: orlistat for constipation after partial bowel resection with colostomy; assay type: in vivo, human
Excerpt: person suffering from bowel cancer was given a partial bowel resection with a colostomy and bag. They complained that since their bowel surgery they suffered chronic constipation and hard stools. […] It would sometimes be so hard it could injure and cause bleeding to the ostomy site.

[7] = system: constipation related to deconditioning/bedridden; assay: Case Example 8: orlistat for constipation related to being bedridden; assay type: in vivo, human
Method: His stools and bowel function gradually became more regular allowing for a reduction of dose of the orlistat (to one 120 mg oral pill twice per day with food) as maintenance.

[8] = system: fibromyalgia, irritable bowel syndrome, chronic abdominal pain; assay: Case Example 9: orlistat in fibromyalgia patient with irritable bowel syndrome; assay type: in vivo, human
Excerpt: This case involves a person with a 15 year history of fibromyalgia. The person reported chronic pain involving the neck, lower back, migraine headaches, abdominal bloating, and constipation with occasional diarrhea. They had been diagnosed with fibromyalgia about 10 years prior, and had chronic abdominal pain, bloating and a formal diagnosis of irritable bowel syndrome. […] Serology, abdominal x-rays, ultrasound of the abdomen and pelvis, were normal. […] There were no masses or any signs of acute surgical abdomen. They were taking Lyrica™ 75 mg twice a day, Flexeril™ 10 mg twice a day as needed, Percocet™ 2 twice a day as needed, and Celebrex™ 200 mg once a day. They were given orlistat (120 mg, twice a day as needed to take with food), and they noted that their constipation resolved, their bloating resolved, their occasional diarrhea resolved, and their abdominal pain resolved.

[9] = system: irritable bowel syndrome, chronic abdominal pain; assay: Case Example 10: orlistat in person with irritable bowel syndrome; assay type: in vivo, human; conditions: over 4 to 6 weeks
Excerpt: This case involves a non-overweight person with a history of irritable bowel syndrome. The person reported chronic abdominal pain and bloating, minor occasional constipation, minor occasional diarrhea, and lower back pain for the past five years. They were otherwise well. They had 2 colonoscopies, and an ultrasound of the abdomen and pelvis, all of which were normal. They were also taking an oral dose of B12. They were on other medications as well. […] There was no rebound or rigidity. They had no enlargement of any organs. They had tenderness globally around their abdomen, tightness of the iliopsoas bilaterally and oblique muscles. Their bowels were tender, and they were chronically uncomfortable and in pain. They were treated with orlistat (120 mg, once or twice a day as needed with food). […] They felt generally better, and was able to stop taking vitamin B12 because the absorption of […] B12 improved with their improved bowel function. Thus, orlistat was useful to treat IBD.

[10] = system: irritable bowel syndrome and heartburn; assay: Case Example 11: orlistat in person with irritable bowel syndrome and heartburn; assay type: in vivo, human; conditions: orlistat 120 mg, one per day on average
Excerpt: This example relates to a person with a 20 year history of irritable bowel syndrome and heartburn. The person reported chronic abdominal pain with bloating, occasional constipation or diarrhea, and epigastric discomfort for over 20 years. They had four colonoscopies over that period of time, and 2 endoscopies of the stomach. […] They also had ultrasounds of the abdomen and pelvis which were normal. They had 2 chest x-rays and an MRI of the abdomen, each of which were normal. They were taking Losec™ for their heartburn which was controlled. They were also taking low dose Atenolol™ for their blood pressure as they had developed some minor hypertension. They were otherwise well. […] There were no masses, rebound or rigidity. There were no organs that were tender or enlarged. They complained of persistent heartburn despite being on Losec™ and abdominal pain. They were treated with orlistat (120 mg, twice a day each with a meal to be reduced or increased as required up to three per day). They reported that they only required one per day on average and occasionally a second tablet. […] They became more flexible in their abdomen and lower back. They were more comfortable in their walking. Thus, orlistat was useful to treat IBD.

[11] = system: opiate-related constipation
[12] = orlistat 120 mg twice a day as needed with food
[13] = orlistat 120 mg once or twice a day

CCCCCCCCCCCCCCCCOc1nc2ccc(C)cc2c(=O)o1 [cetilistat]
side effects reported ([1]; cetilistat 60 mg once per day, one year): no major side effects
time to bowel movement ([1]; cetilistat 60 mg orally once per day with food, patient on amitriptyline): ≤ 24 h
bowel movements on continued daily treatment ([1]; cetilistat one pill per day): regular bowel movements daily
outcome after a year of amitriptyline and cetilistat ([1]; one year): good success with treatment of fibromyalgia and daily bowel movements
abdominal bloating and abdominal pain [2]: resolved
bowel movement regularity [2]: regular bowel movements daily
quality of the bowel movement [2]: painless and soft
anal fissure and rectal bleeding ([2]; over two weeks): the anal fissure had healed and the bleeding had stopped
relief of constipation on days of use [3]: good relief of their constipation with regular, soft bowel movements

CCCCCCCCCCC[C@@H](C[C@@H]1OC(=O)[C@H]1CCCCCC)OC(=O)[C@H](CC(C)C)NC=O [orlistat]
bowel movements after cessation ([4]; after stopping orlistat at seven days): continue to be normal
bowel movements on treatment ([4]; orlistat 120 mg once daily): normal and regular
time to resolution of constipation ([4]; orlistat 120 mg orally once daily with food for one week): ≤ 24 h
bowel formation [5]: long-term improvement in bowel formation
bowel movements [5]: soft and allowing for more regular, daily movements
need for enemas and manual disempaction [5]: significant reduction of therapeutic enemas and manual disempaction
abdominal pain ([6]; orlistat 120 mg once daily): no longer had abdominal pain
bloating ([6]; orlistat 120 mg once daily): greatly improved
stool consistency ([6]; orlistat 120 mg once daily): softened their stool
average bowel movement frequency ([6]; orlistat 120 mg orally once daily with food): once a day
stool and bowel movements ([7]; orlistat 120 mg once a day increased to three times per day with food, then twice per day as maintenance): softening of their stool, and the formation of regular bowel movements daily
need for Fleet enemas and disempaction ([7]; orlistat, maintenance 120 mg twice per day): cessation of the Fleet enemas and the disempaction
long-term outcome ([8]; combined medication for over two years): sustained good results
abdominal pain [8, 12]: resolved
bloating [8, 12]: resolved
occasional diarrhea [8, 12]: resolved
overall fibromyalgia [8, 12]: improvement in their overall fibromyalgia
constipation ([8]; orlistat 120 mg twice a day as needed with food, with Lyrica, Flexeril, Percocet, Celebrex): resolved
bloating ([9]; orlistat 120 mg once or twice a day as needed with food): reduced bloating
abdominal pain [9, 13]: resolution of their abdominal pain
diarrhea [9, 13]: no episodes of diarrhea
muscles of abdomen and lower back [9, 13]: relaxation of the muscles of their abdomen and lower back
straining with bowel movements [9, 13]: less straining with bowel movements
bloating [10]: great improvement of their bloating
abdominal pain and heartburn ([10]; over 4 to 6 weeks): great improvement of their abdominal pain and heartburn
time to noticed improvement of constipation ([11]; orlistat 120 mg BID orally with food, patient on MS Contin 60 mg BID): ≤ 24 h
bowel movements within one week ([11]; orlistat 120 mg BID orally with food, within one week): daily bowel movements
bowel movements over one year of treatment ([11]; orlistat 120 mg BID, one year): good well-formed bowel movements most days
side effects reported ([11]; orlistat 120 mg BID, one year): no major side effects
